Results: PMC2375326, “In vitro evaluation of amino acid prodrugs of novel antitumour 2-(4-amino-3-methylphenyl)benzothiazoles” (British Journal of Cancer, 2002)
Values belong to the compound of their own block, whether it stands above or below them.

Tests used:
MCF-7 cells = test: Prodrug uptake, conversion and metabolism (HPLC of media), MCF-7; type: in vitro ADME, human; conditions: prodrug 10 μM, days 1–7
Experimental: MCF-7 cells were seeded into 25 ml flasks at appropriate densities (5×10^5–5×10^6). After 24 h, medium was changed and drug introduced at a final concentration of 10 μM. Media samples, collected from flasks at time zero and 24 h intervals, were mixed with 1.5-fold volumes of high performance liquid chromatography (HPLC) grade acetonitrile to precipitate protein and centrifuged at 14 000 g for 5 min. Supernatants (600 μl) were mixed with 400 μl 10% acetonitrile in 1% acetic acid and analysed by HPLC. The system consisted of Beckman System Gold equipment (solvent module 128, autosampler 507e and multiple wavelength UV detector 168). Separation of parent compounds and biotransformation products was effected at room temperature on a Phenomenex Aqua C18 reversed-phase column (150×4.6 mm). The mobile phase was formed by increasing, then decreasing the acetonitrile concentration in 1% acetic acid over 20 min by mixing two solutions: acetonitrile-water-acetic acid (10 : 90 : 1, v v^−1) and acetonitrile-water-acetic acid (80 : 20 : 1 v v^−1) and delivered at a flow rate of 1 ml min^−1. Compounds were detected at 324 nm.

CCRF-CEM = test: NCI in vitro cytotoxicity assay (SRB), CCRF-CEM; type: cell-based; conditions: Homo sapiens, 48 h exposure, sulforhodamine B assay, mean graph, read-out: Log10 GI50 (CCRF-CEM) (converted)
Experimental: (§1) Cell culture and drug application procedures have been described previously ([Boyd and Paull, 1995]). Briefly, cell lines were inoculated into a series of 96-well microtiter plates, with varied seeding densities depending on growth characteristics of each cell line. Following a 24 h drug free incubation, test agents were added at five 10-fold dilutions with a maximum concentration of 100 μM. Cellular protein levels were determined after 48 h drug exposure by sulphorhodamine B colorimetry.

A549/ATCC = test: NCI in vitro cytotoxicity assay (SRB), A549/ATCC; type: cell-based; conditions: Homo sapiens, 48 h exposure, sulforhodamine B assay, mean graph, read-out: Log10 GI50 (A549/ATCC) (converted)
Experimental: as §1

EKVX = test: NCI in vitro cytotoxicity assay (SRB), EKVX; type: cell-based; conditions: Homo sapiens, 48 h exposure, sulforhodamine B assay, mean graph, read-out: Log10 GI50 (EKVX) (converted)
Experimental: as §1

HCT-116 = test: NCI in vitro cytotoxicity assay (SRB), HCT-116; type: cell-based; conditions: Homo sapiens, 48 h exposure, sulforhodamine B assay, mean graph, read-out: Log10 GI50 (HCT-116) (converted)
Experimental: as §1

KM12 = test: NCI in vitro cytotoxicity assay (SRB), KM12; type: cell-based; conditions: Homo sapiens, 48 h exposure, sulforhodamine B assay, mean graph, read-out: Log10 GI50 (KM12) (converted)
Experimental: as §1

SF-295 = test: NCI in vitro cytotoxicity assay (SRB), SF-295; type: cell-based; conditions: Homo sapiens, 48 h exposure, sulforhodamine B assay, mean graph, read-out: Log10 GI50 (SF-295) (converted)
Experimental: as §1

CAKI-1 = test: NCI in vitro cytotoxicity assay (SRB), CAKI-1; type: cell-based; conditions: Homo sapiens, 48 h exposure, sulforhodamine B assay, mean graph, read-out: Log10 GI50 (CAKI-1) (converted)
Experimental: as §1

UO 31 = test: NCI in vitro cytotoxicity assay (SRB), UO 31; type: cell-based; conditions: Homo sapiens, 48 h exposure, sulforhodamine B assay, mean graph, read-out: Log10 GI50 (UO 31) (converted)
Experimental: as §1

MDA-N = test: NCI in vitro cytotoxicity assay (SRB), MDA-N; type: cell-based; conditions: Homo sapiens, 48 h exposure, sulforhodamine B assay, mean graph, read-out: Log10 GI50 (MDA-N) (converted)
Experimental: as §1

[1] = system: CYP1A1 activity (EROD) in IGROV-1 cells; test: EROD activity in homogenates of treated IGROV-1 cells; type: cell-based, human; conditions: IGROV-1 cells treated 24 h; biphasic dose response
Experimental: A sensitive and rapid fluorometric assay was used to measure EROD activity ([Burke et al, 1994]). Incubation mixtures (total 1 ml) consisted of 100 mM Tris-HCl (pH 7.4), 50 μM MgCl2, 100 μM 7-ethoxyresorufin and 100 μl cell homogenate. Homogenates were prepared following treatment of cells for 24 h with compounds 1, 2, 2a, 2b, 3, 3a, 3b, 4, 4a and 4b or vehicle alone and protein content determined (n=3). Thus induction of ethoxyresorufin O-deethylation by agents under study, catalysed by CYP1A1 activity, could be determined. Alternatively, microsomes expressing recombinant CYP1A1 (0.1 mg ml^−1) provided the enzyme source for EROD catalysis, in the presence or absence of drug, in order to determine inhibition of CYP1A1 activity by compounds 1, 2, 2a, 2b, 3, 3a, 3b, 4, 4a and 4b. Incubation mixtures were pre-incubated for 5 min at 37°C before initiation of reaction by addition of NADPH (500 μM). Following further incubations at 37°C (30 min for cell homogenates, 15 min for CYP1A1 microsomes), reactions were terminated by addition of 3 ml ice-cold acetonitrile. […] Fluorescence was read on a Perkin-Elmer LS-5 luminescence spectrometer (excitation, 530 nm; emission 585 nm). Estimation of resorufin reaction product (pmoles mg^−1 protein, pmoles 100 μg^−1 microsomes), as a measure of CYP1A1 activity, was determined following performance of a resorufin standard curve.

HCC-2998 = test: NCI in vitro cytotoxicity assay (SRB), HCC-2998; type: cell-based; conditions: Homo sapiens, 48 h exposure, sulforhodamine B assay, mean graph, read-out: Log10 GI50 (HCC-2998) (converted)
Experimental: as §1

OVCAR-4 = test: NCI in vitro cytotoxicity assay (SRB), OVCAR-4; type: cell-based; conditions: Homo sapiens, 48 h exposure, sulforhodamine B assay, mean graph, read-out: Log10 GI50 (OVCAR-4) (converted)
Experimental: as §1

[2] = system: breast and ovarian xenografts; parameters: method as in Bradshaw et al, 2002; conditions: in vivo; ref Bradshaw et al, 2002; cited from earlier work

Compound: Cc1cc(-c2nc3cc(F)ccc3s2)ccc1N [Compound 2, 2-(4-Amino-3-methylphenyl)-5-fluorobenzothiazole]
Biotransformation products of liberated parent amine in media (MCF-7 cells): No biotransformation products could be detected | GI50 (CCRF-CEM): 1.23 µM | GI50 (A549/ATCC): 6.92 µM | GI50 (EKVX): 1.41 µM | GI50 (HCT-116): 15.8 µM | GI50 (KM12): 69.2 µM | GI50 (SF-295): 20.9 µM | GI50 (CAKI-1): 25.7 µM | GI50 (UO 31): 85.1 µM | GI50 (MDA-N): > 100 µM

Concentration giving maximum induction of EROD activity [1]: 1000 nM
Compound: Cc1cc(-c2nc3cc(F)ccc3s2)ccc1NC(=O)[C@@H](N)CCCCN [Compound 2b]
GI50 (A549/ATCC): 1.7 µM | GI50 (HCC-2998): 0.741 µM | GI50 (HCT-116): 2.88 µM | GI50 (OVCAR-4): 2.04 µM | GI50 (UO 31): 3.09 µM | Growth of breast and ovarian xenografts [2]: suppresses significantly
